Measurements: US10603357B2, “Therapeutic TREM-1 peptides” (Universite de Lorraine, priority 2004, dated 2020)
Marks after values point to notes of the source that are not given here.

Key:
[1] = test system: BALB/c mice; assay: LPS-induced endotoxinemia in mice (Example 3); type: in vivo, mouse; conditions: for Serum IL-1β / Serum TNF-α / Serum sTREM-1: endotoxemic mice, 100 μg
Protocol: P5 (50 μg or 100 μg) or control vector was administered 60 min before LPS.
P5 (75 μg) or control vector was administered 4 or 6 hours after LPS as indicated. […]
After approval by the local ethical committee, male Balb/C mice (20 to 23 g) were randomly grouped and treated with E. coli LPS intraperitoneally (i.p.) in combination with P5 (in 500 μl normal saline) or control vector before or after LPS challenge. In some experiments, 5 μg of an anti TREM-1 monoclonal antibody was administered i.p. one hour after LPS injection. The viability of mice was examined every hour, or animals were sacrificed at regular intervals. Serum samples were collected by cardiac puncture and assayed for TNF-α and IL-1β by ELISA (BD Biosciences), and for sTREM-1 levels by immunodot.

[2] = test system: rats; assay: CLP polymicrobial sepsis model in rats, haemodynamic and biological measurements; type: in vivo, rat; conditions: for effect on TNF-α production: CLP (FIG. 16); for Aortic blood flow / Bicarbonate / Heart Rate / Lactate / Mesenteric blood flow / pH: CLP polymicrobial sepsis; for decline in arterial pressure over time: H16 to H24 (FIG. 15)
Protocol: The procedure has been described in details elsewhere (see Mansart, A. et al. Shock 19:38-44 (2003)). Briefly, rats (n=6-10 per group) were anesthetized by i.p. administration of ketamine (150 mg/kg). The caecum was exposed through a 3.0-cm abdominal midline incision and subjected to a ligation of the distal half followed by two punctures with a G21 needle. A small amount of stool was expelled from the punctures to ensure […]. The caecum was replaced into the peritoneal cavity and the abdominal incision closed in two layers. After surgery, all rats were injected s.c. with 50 mL/kg of normal saline solution for fluid resuscitation. TREM-1 or scrambled peptides were then administered as above.
Immediately after LPS administration as well as 16 hours after CLP, arterial BP (systolic, diastolic, and mean), heart rate, abdominal aortic blood flow, and mesenteric blood flow were recorded using a procedure described elsewhere (see Mansart, A. et al. Shock 19:38-44 (2003)). Briefly, the left carotid artery and the left jugular vein were cannulated with PE-50 tubing. Arterial BP was continuously monitored by a pressure transducer and an amplifier-recorder system (IOX EMKA Technologies, Paris, France). Perivascular probes (Transonic Systems, Ithaca, N.Y.) wrapped up the upper abdominal aorta and mesenteric artery, allowed to monitor their respective flows by means of a flowmeter (Transonic Systems). After the last measurement (4th hour during LPS experiments and 24th hour after CLP), animals were sacrificed by an overdose of sodium thiopental i.v.
Blood was sequentially withdrawn from the left carotid artery. Arterial lactate concentrations and blood gases analyses were performed on an automatic blood gas analyser (ABL 735, Radiometer, Copenhagen, Denmark). Concentrations of TNF-α and IL-1β in the plasma were determined by an ELISA test (Biosource, Nivelles, Belgium) according to the recommendations of the manufacturer. Plasmatic concentrations of nitrates/nitrites were measured using the Griess reaction (R&D Systems, Abingdon, UK).

[3] = test system: TREM-1/TREM-1 ligand interaction; assay: competition of soluble mouse TREM-1/IgG1 binding to TREM-1 ligand positive peritoneal exudate cells (flow cytometry); conditions: peptides 100 and 500 μM, pre-incubated 45 minutes on ice; 2 μg/ml mouseTREM-1/hIgG1
Protocol: Cytofluorimetric analysis of peritoneal exudate cells with 2 μg/ml of mouseTREM-1/hIgG1 in the presence of a 500 μM solution per mouse (thin line), 100 μM solution per mouse (dotted line) or absence (thick line) of the peptides is shown. The grey histogram represents immunostaining with human IgG1 as a control.
A possible mechanism of action could be the ability of TREM-1 derived peptide to interfere with TREM-1/TREM-1 ligand interaction. To address this question the Inventors performed competition experiments on TREM-1 ligand positive cells: PEC (Peritoneal Exudate Cells) from CLP treated mice.
Peritoneal exudate cells (PEC) from mice suffering from a caecal ligation and puncture (CLP)-induced peritonitis were subjected to flow cytometry analysis after incubation with a PE-conjugated anti-human IgG1 (Jackson Immunoresearch, Bar Harbor, USA). Competition with TREM-1 peptides was performed by pre-incubating cells with the indicated concentrations of peptides for 45 minutes on ice before adding mTREM-1-IgG1.

[4] = pre-treatment by 100 μg, 2 and 4 hours

Sequence | effect on TNF-α production [2] | Aortic blood flow ([2]; H16) [mL/min] | Bicarbonate ([2]; H16) [mmol/L] | Heart Rate ([2]; H16) | Lactate ([2]; H16) | Mesenteric blood flow ([2]; H16) | pH ([2]; H16) | Aortic blood flow ([2]; H20) | Bicarbonate ([2]; H20) | Heart Rate ([2]; H20) | Lactate ([2]; H20) | Mesenteric blood flow ([2]; H20) | pH ([2]; H20) | Aortic blood flow ([2]; H24) | Bicarbonate ([2]; H24) | Heart Rate ([2]; H24) [bpm] | Lactate ([2]; H24) | Mesenteric blood flow ([2]; H24) | pH ([2]; H24) | decline in arterial pressure over time ([2]; CLP) | also measured
LQVTDSGLYRCVIYHPP [P5] | decrease | 41 ± 14 | 18.6 ± 2.0 | 460 ± 17^b bpm | 3.3 ± 0.4^b mmol/L | 15.3 ± 3.5^b mL/min | 7.35 ± 0.01^b | 31 ± 5^b mL/min | 18.0 ± 0.9^a mmol/L | 500 ± 17^b bpm | 3.6 ± 0.9^b, c mmol/L | 11.0 ± 6.9^b, c mL/min | 7.34 ± 0.01^b | 28 ± 8^b mL/min | 17.1 ± 0.9^a, c mmol/L | 510 ± 20 | 4.9 ± 1.1^b, c mmol/L | 8.5 ± 3.5^b, c mL/min | 7.36 ± 0.01^b, c | almost totally abolished | protection against LD100 dose of LPS, delayed treatment ([1]; 75 μg, delayed up to 4 hours after LPS): significant protection; clinical appearance of treated mice ([1]; LD100 of LPS): remained well groomed and active, had no diarrhoea, and were lively; late death over one week ([1]; LD100 of LPS): No late death occurred; Serum IL-1β ([1]; H2): 0.2 ± 0.1 ng/mL; Serum TNF-α ([1]; H2): 2.4 ± 0.5 ng/mL; Serum sTREM-1 ([1]; H2): 475 ± 37 ng/mL; Serum IL-1β ([1]; H4): 0.9 ± 0.2 ng/mL; Serum TNF-α ([1]; H4): 0.1 ± 0.1 ng/mL; Serum sTREM-1 ([1]; H4): 243 ± 28 ng/mL; increase of serum sTREM-1 levels compared to controls [1, 4]: 2 fold; reduction of serum cytokines levels compared to controls [1, 4]: 30%; protection from death ([1]; single dose (50 μg or 100 μg) 60 min before LD100 of LPS): prevented from death in a dose-dependent manner; plasmatic TNF-α ([2]; CLP, by H20 (FIG. 16)): almost undetectable; inhibition of TREM-1 interaction with its ligand (mTREM-1/IgG1 binding to PEC) [3]: inhibit TREM-1 interaction with its ligand in a dose dependent manner
LVVTQRPFTRPSEVHMGKFTLKH (listed as Mus musculus) [P1] | decrease | 41 ± 12 | 16.8 ± 4.4 | 462 ± 16^a bpm | 4.9 ± 0.4 mmol/L | 13.5 ± 7.2 mL/min | 7.32 ± 0.04 | 28 ± 17^a mL/min | 16.0 ± 5.4^b mmol/L | 480 ± 30^a bpm | 5.3 ± 1.1^a, c mmol/L | 5.3 ± 3.0^c mL/min | 7.31 ± 0.18^a | 22 ± 16^a mL/min | 11.2 ± 0.8^c mmol/L | 420 ± 30 | 6.8 ± 0.9^a, c mmol/L | 4.5 ± 2.1^c mL/min | 7.24 ± 0.06^a, c | almost totally abolished | inhibition of TREM-1 interaction with its ligand (mTREM-1/IgG1 binding to PEC) [3]: inhibit TREM-1 interaction with its ligand in a dose dependent manner
